Laboratory results taken from patent US20090239841A1, “Diaryl Ureas as CB1 Antagonists” (priority 2004, published 2009).

The molecules below were run against T1, hCB1 (Homo sapiens, UniProt P21554) (assay: Agonist-induced GTP binding (GTPγ35S) assay at CB1, Example 8). Details: IC50 at CB1, determined as described in Example 8; read-out: IC50.
T1 construct: made in house; host or cells: Sf9 insect cells (baculovirus), P2 membranes
Type: biochemical
Method in brief: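 Membranes from Sf9 cells co-expressing hCB1 and heterotrimeric G-protein (10 μg protein) in Tris pH 7.4 buffer with 5 μM GDP. Test compounds (10^−10–10^−5 M) competed against 1 nM CP55,940 with […] GTPγ35S, 60 min at room temperature. Filter-bound radioactivity by scintillation, expressed as percent above basal.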

T1 sequence (P21554 whole entry): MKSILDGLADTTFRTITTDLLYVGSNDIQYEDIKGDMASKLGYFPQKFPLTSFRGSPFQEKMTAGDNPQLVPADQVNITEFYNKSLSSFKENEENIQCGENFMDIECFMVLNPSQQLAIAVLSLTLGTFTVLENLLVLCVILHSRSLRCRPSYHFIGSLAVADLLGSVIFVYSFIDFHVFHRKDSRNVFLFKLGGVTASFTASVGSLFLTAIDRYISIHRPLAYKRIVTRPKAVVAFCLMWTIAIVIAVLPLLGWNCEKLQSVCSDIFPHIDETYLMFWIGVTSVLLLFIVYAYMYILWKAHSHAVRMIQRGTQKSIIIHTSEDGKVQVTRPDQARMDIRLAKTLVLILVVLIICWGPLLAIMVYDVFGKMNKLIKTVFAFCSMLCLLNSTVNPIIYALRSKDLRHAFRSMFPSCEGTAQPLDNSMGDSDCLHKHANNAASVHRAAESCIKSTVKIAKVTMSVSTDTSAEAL

| Structure (SMILES) | IC50 [nM] |
| --- | --- |
| CCCc1ccc(NC(=O)Nc2ccc(C#N)cc2)cc1 [Compound 349, 1-(4-cyanophenyl)-3-(4-propylphenyl)urea] | < 2000 |
| CCOC(=O)c1cccc(NC(=O)Nc2ccc(C(=O)OC(C)C)cc2)c1 [Compound 725, ethyl 3-[({[4-(isopropoxycarbonyl)phenyl]amino}carbonyl)amino] benzoate] | < 2000 |
| CC(C)c1ccc(NC(=O)Nc2ccc(Cl)nc2)cc1 [Compound 630, 1-(6-chloropyridin-3-yl)-3-(4-isopropylphenyl)urea] | < 2000 |
| CCOC(=O)c1ccc(NC(=O)Nc2ccc(F)c(C)c2)cc1 [Compound 738, ethyl 4-({[(4-fluoro-3-methylphenyl)amino]carbonyl}amino)benzoate] | < 2000 |
| CC(C)Oc1cccc(NC(=O)Nc2cc(F)cc(F)c2)c1 [Compound 708, 1-(3,5-difluorophenyl)-3-(3-isopropoxyphenyl)urea] | < 2000 |
| N#Cc1cccc(NC(=O)Nc2ccc3c(c2)CCC3)c1 [Compound 454, 1-(3-cyanophenyl)-3-(2,3-dihydro-1H-inden-5-yl)urea] | < 2000 |
| CCOC(=O)c1ccc(NC(=O)Nc2ccc(COC)cc2)cc1 [Compound 670, ethyl 4-[({[4-(methymethyl)phenyl]amino}carbonyl)amino]benzoate] | < 2000 |

More lines, now with the values ahead:

| IC50 [nM] | Structure (SMILES) |
| --- | --- |
| < 2000 | CCOc1ccc(NC(=O)Nc2ccc(CC#N)cc2)cc1 [Compound 587, 1-[4-(cyanomethyl)phenyl]-3-(4-ethoxyphenyl)urea] |
| < 2000 | CCc1cccc(NC(=O)Nc2ccc(OCC#N)cc2)c1 [Compound 488, 1-[4-(cyanomethoxy)phenyl]-3-(3-ethylphenyl)urea] |
| < 2000 | CC(C)Oc1ccc(NC(=O)Nc2cccc(C#N)c2)cc1 [Compound 422, 1-(3-cyanophenyl)-3-(4-isopropoxyphenyl)urea] |
| < 2000 | CCOC(=O)c1cccc(NC(=O)Nc2ccc(OCC#N)cc2)c1 [Compound 718, ethyl 3-[({[4-(cyanomethoxy)phenyl]amino}carbonyl)amino]benzoate] |
| < 2000 | COc1cccc(NC(=O)Nc2ccc(OCC#N)cc2)c1 [Compound 588, 1-[4-(cyanomethoxy)phenyl]-3-(3-methoxyphenyl)urea] |
| < 2000 | CCOC(=O)c1ccc(NC(=O)Nc2ccc(OCC#N)cc2)cc1 [Compound 719, ethyl 4-[({[4-(cyanomethoxy)phenyl]amino}carbonyl)amino]benzoate] |
| < 2000 | CCOc1ccc(NC(=O)Nc2cccc(CC)c2)cc1 [Compound 387, 1-(4-ethoxyphenyl)-3-(3-ethylphenyl)urea] |

Same assay, conditions: Table I; IC50 at CB1, GTP binding with 1 nM CP55,940; read-out: IC50

| IC50 [nM] | Structure (SMILES) |
| --- | --- |
| < 2000 | CCOc1cccc(NC(=O)Nc2ccc(OC(F)F)cc2)c1 [Compound 9, N-[4-(difluoromethoxy)phenyl]-N′-(3-ethoxyphenyl)urea] |
| < 2000 | COc1cc(NC(=O)Nc2ccc(OC(F)F)c(OC)c2)ccc1OC(F)F [Compound 54, N,N′-bis[4-(difluoromethoxy)-3-methoxyphenyl]urea] |

Same assay, conditions: Table II; IC50 at CB1, GTP binding with 1 nM CP55,940; read-out: IC50

| IC50 [nM] | Structure (SMILES) |
| --- | --- |
| < 2000 | O=C(Nc1cccc(OC(F)F)c1)Nc1ccc(N2CCOCC2)c(Cl)c1 [Compound 143, N-(3-chloro-4-morpholin-4-ylphenyl)-N′-[3-(difluoromethoxy)phenyl]urea] |
| < 2000 | CCc1ccc(NC(=O)Nc2cccc(OC(F)F)c2)cc1 [Compound 254, N-[3-(difluoromethoxy)phenyl]-N′-(4-ethylphenyl)urea] |
| < 2000 | O=C(Nc1ccc(OC(F)F)cc1)Nc1cc(-c2ccccc2)n[nH]1 [Compound 107, N-[4-(difluoromethoxy)phenyl]-N′-(3-phenyl-1H-pyrazol-5-yl)urea] |
| < 2000 | Cc1n[nH]c(C)c1-c1cccc(NC(=O)Nc2ccc(OC(F)F)cc2)c1 [Compound 117, N-[4-(difluoromethoxy)phenyl]-N′-[3-(3,5-dimethyl-1H-pyrazol-4-yl)phenyl]urea] |
| < 2000 | Cc1ccc2cc(-c3cccc(NC(=O)Nc4ccc(OC(F)F)cc4)c3)ccc2n1 [Compound 70] |
| < 2000 | CCc1cccc(NC(=O)Nc2cccc(OC(F)F)c2)c1 [Compound 253, N-[3-(difluoromethoxy)phenyl]-N′-(3-ethylphenyl)urea] |
